Results published in patent publication US10538497B2, “Compounds as indoleamine 2,3-dioxygenase inhibitors” (Merck Sharp & Dohme Corp., priority 2015, dated 2020).

Key:
IDO1 [1] = target: T1, IDO1 (Homo sapiens (Human), UniProt P14902); assay: IDO1 Enzyme Assay; settings: HIS-tagged recombinant IDO1, 40 nM
IDO1 [2] = target: T1, IDO1; assay: IDO1 Cellular Assay in Hela Cells Stimulated with IFNγ; type: cell-based; settings: Hela cells stimulated with IFNγ 100 ng/mL; read-out: IDO1 HELA Cell Assay, IC50
Method: IDO1 Cellular Assay in Hela Cells Stimulated with IFNγ
Hela cells were cultured in complete Hela culture medium (90% EMEM, 10% heat-inactivated fetal bovine serum) and expanded to about 1×10^9 cells. The cells were then collected and frozen down at 10×10^6 cells/vial in 1 mL frozen medium (90% complete Hela culture medium, 10% DMSO)
Frozen Hela cells were thawed and transferred into Hela assay medium (99% complete Hela culture medium, 1% Pen/Strep) with 20 mL medium/vial of cells. The cells were spun down at 250 g in a table top centrifuge for 5 min and suspended in same volume of Hela assay medium. The cells were then counted and adjusted to a density of 2×10^5 cells/ml in Hela assay medium. Sterile L-tryptophan were added to the cells with final concentration of 300 uM L-tryptophan. A small aliquot (2 mL/plate) of Hela cells were set aside and were not treated with IFNγ, to serve as the Max-E control. The rest of Hela cells were added with sterile IFNγ (Cat #285-IF, R & D systems) with a final concentration of 100 ng/mL.
Hela cells with and without IFNγ were dispensed to the respective wells of 384-well assay plates containing the compounds. The plates were incubated for about 48 hours at a 37° C., 5% CO2 incubator. […] The plates were centrifuged for 1 min at 200×g. The resulting fluorescence was measured in a Spectramax plate reader (Molecular Devices) with a 400 nm excitation filter and a 510 nm emission filter.

[3] = read-out: IDO1 Enzyme Assay, IC50

T1 sequence (P14902 whole entry): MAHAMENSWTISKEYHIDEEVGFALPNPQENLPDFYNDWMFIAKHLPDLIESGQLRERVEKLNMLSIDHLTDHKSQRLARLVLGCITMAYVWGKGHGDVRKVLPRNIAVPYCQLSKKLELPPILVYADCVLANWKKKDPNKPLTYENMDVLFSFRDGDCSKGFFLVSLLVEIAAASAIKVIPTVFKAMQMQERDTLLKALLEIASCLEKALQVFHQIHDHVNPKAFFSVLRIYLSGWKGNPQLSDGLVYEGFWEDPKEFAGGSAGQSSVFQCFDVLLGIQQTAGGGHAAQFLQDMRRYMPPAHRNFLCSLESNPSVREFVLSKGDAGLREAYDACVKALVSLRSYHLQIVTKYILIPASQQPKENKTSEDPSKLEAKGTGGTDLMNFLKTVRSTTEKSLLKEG

IC50 (IDO1 [1]; IDO1 Enzyme Assay, IC50, nM)	IC50 (IDO1 [2])	IC50 (IDO1 [1]; [3])	SMILES
–	94 nM	47.6 nM	CC(=O)NCCOc1nonc1/C(=N/O)Nc1ccc(F)c(Br)c1 [Example 5, N-(2-((4-(N-(3-bromo-4-fluorophenyl)-N′-hydroxycarbamimidoyl)-1,2,5-oxadiazol-3-yl)oxy)ethyl)acetamide]
–	144 nM	44 nM	O=C(COc1nonc1/C(=N/O)Nc1ccc(F)c(Br)c1)NCCO [Example 6, 2-((4-(N-(3-Bromo-4-fluorophenyl)-N′-hydroxycarbamimidoyl)-1,2,5-oxadiazol-3-yl)oxy)-N-(2-hydroxyethyl)acetamide]
–	13.1 nM	32 nM	O=S1(=O)NC[C@H](CSc2nonc2/C(=N/O)Nc2ccc(F)c(Cl)c2)N1 [Example 32, (R)—N-(3-chloro-4-fluorophenyl)-4-(((1,1-dioxido-1,2,5-thiadiazolidin-3-yl)methyl)thio)-N′-hydroxy-1,2,5-oxadiazole-3-carboximidamide]
–	26.3 nM	53.5 nM	O=S1(=O)NC[C@H](CSc2nonc2/C(=N/O)Nc2ccc(F)c(Br)c2)N1 [Example 33, (R)—N-(3-bromo-4-fluorophenyl)-4-(((1,1-dioxido-1,2,5-thiadiazolidin-3-yl)methyl)thio)-N′-hydroxy-1,2,5-oxadiazole-3-carboximidamide]
–	118 nM	144 nM	CC(C)(O)[C@@H](O)CSc1nonc1C(=NO)Nc1ccc(F)c(C#N)c1 [Example 38, (R)—N-(3-cyano-4-fluorophenyl)-4-((2,3-dihydroxy-3-methylbutyl)thio)-N′-hydroxy-1,2,5-oxadiazole-3-carboximidamide]
–	–	29.3 nM	O=c1c(NCCO)c(NCCSc2nonc2/C(=N/O)Nc2ccc(F)c(Br)c2)c1=O [Example 90, N-(3-bromo-4-fluorophenyl)-N′-hydroxy-4-{[2-({2-[(2-hydroxyethyl)amino]-3,4-dioxocyclobut-1-en-1-yl}amino)ethyl]sulfanyl}-1,2,5-oxadiazole-3-carboximidamide]
106 nM	–	–	O=C(CSc1nonc1C(=NO)Nc1ccc(F)c(Br)c1)N1CCC[C@@H]1CO [Example 135, N-(3-bromo-4-fluorophenyl)-N′-hydroxy-4-({2-[(2R)-2-(hydroxymethyl)pyrrolidin-1-yl]-2-oxoethyl}sulfanyl)-1,2,5-oxadiazole-3-carboximidamide]
–	143 nM	73.8 nM	O=C(CSc1nonc1/C(=N/O)Nc1ccc(F)c(Br)c1)N1CCOCC1 [Example 193, N-(3-bromo-4-fluorophenyl)-N′-hydroxy-4-[(2-morpholin-4-yl-2-oxoethyl)sulfanyl]-1,2,5-oxadiazole-3-carboximidamide]
–	342 nM	92.5 nM	O=C(CSc1nonc1/C(=N/O)Nc1ccc(F)c(Br)c1)N1C[C@@H](O)[C@@H](O)C1 [Example 195, N-(3-bromo-4-fluorophenyl)-4-((2-((3S,4R)-3,4-dihydroxypyrrolidin-1-yl)-2-oxoethyl)thio)-N′-hydroxy-1,2,5-oxadiazole-3-carboximidamide]
–	15.3 nM	44.9 nM	C[C@H](CO)NC(=O)CSc1nonc1/C(=N/O)Nc1ccc(F)c(Br)c1 [Example 197, (R)-2-((4-(N-(3-bromo-4-fluorophenyl)-N′-hydroxycarbamimidoyl)-1,2,5-oxadiazol-3-yl)thio)-N-(1-hydroxypropan-2-yl)acetamide]
–	149 nM	56 nM	O=C(CSc1nonc1/C(=N/O)Nc1ccc(F)c(Br)c1)N[C@H]1CCOC[C@H]1O [Example 198, 2-((4-(N-(3-bromo-4-fluorophenyl)-N′-hydroxycarbamimidoyl)-1,2,5-oxadiazol-3-yl)thio)-N-((3S,4S)-3-hydroxytetrahydro-2H-pyran-4-yl)acetamide]
–	508 nM	57.8 nM	CNS(=O)(=O)NC(=O)CSc1nonc1/C(=N/O)Nc1ccc(F)c(Br)c1 [Example 199, 2-((4-(N-(3-bromo-4-fluorophenyl)-N′-hydroxycarbamimidoyl)-1,2,5-oxadiazol-3-yl)thio)-N-(N-methylsulfamoyl)acetamide]
–	26.8 nM	22.4 nM	C[C@@H](O)CNC(=O)CSc1nonc1/C(=N/O)Nc1ccc(F)c(Br)c1 [Example 201, (R)-2-((4-(N-(3-bromo-4-fluorophenyl)-N′-hydroxycarbamimidoyl)-1,2,5-oxadiazol-3-yl)thio)-N-(2-hydroxypropyl)acetamide]

Continued, compound first:

SMILES	IC50 (IDO1 [1]; IDO1 Enzyme Assay, IC50, nM)	IC50 (IDO1 [2])	IC50 (IDO1 [1]; [3])
O=C(CSc1nonc1/C(=N/O)Nc1ccc(F)c(Br)c1)NCC(O)CN1CCOCC1 (single isomer, unassigned) [Example 206, 2-((4-(N-(3-bromo-4-fluorophenyl)-N′-hydroxycarbamimidoyl)-1,2,5-oxadiazol-3-yl)thio)-N-(2-hydroxy-3-morpholinopropyl)acetamide]	39.3 nM	111 nM	–
O=C(CSc1nonc1/C(=N/O)Nc1ccc(F)c(Br)c1)NCC(O)CN1CCOCC1 (single isomer, unassigned) [Example 207, 2-((4-(N-(3-bromo-4-fluorophenyl)-N′-hydroxycarbamimidoyl)-1,2,5-oxadiazol-3-yl)thio)-N-(2-hydroxy-3-morpholinopropyl)acetamide]	43.1 nM	140 nM	–
CC(C)(CO)NC(=O)CSc1nonc1/C(=N/O)Nc1ccc(F)c(Br)c1 [Example 27, 2-((4-(N-(3-bromo-4-fluorophenyl)-N′-hydroxycarbamimidoyl)-1,2,5-oxadiazol-3-yl)thio)-N-(1-hydroxy-2-methylpropan-2-yl)acetamide]	–	17.6 nM	29.8 nM
CC(C)(O)CNC(=O)CSc1nonc1/C(=N/O)Nc1ccc(F)c(Br)c1 [Example 28, 2-((4-(N-(3-bromo-4-fluorophenyl)-N′-hydroxycarbamimidoyl)-1,2,5-oxadiazol-3-yl)thio)-N-(2-hydroxy-2-methylpropyl)acetamide]	–	65.9 nM	38 nM
CC(C)(O)[C@H](O)CSc1nonc1C(=NO)Nc1ccc(F)c(C#N)c1 [Example 39, (S)—N-(3-cyano-4-fluorophenyl)-4-((2,3-dihydroxy-3-methylbutyl)thio)-N′-hydroxy-1,2,5-oxadiazole-3-carboximidamide]	–	87.6 nM	118 nM
O=c1cc(C(F)(F)F)cc(CSc2nonc2/C(=N/O)Nc2ccc(F)c(Br)c2)[nH]1 [Example 88, N-(3-bromo-4-fluorophenyl)-N′-hydroxy-4-({[6-oxo-4-(trifluoromethyl)-1,6-dihydropyridin-2-yl]methyl}sulfanyl)-1,2,5-oxadiazole-3-carboximidamide]	–	174 nM	173 nM
O=c1c(NCCSc2nonc2/C(=N/O)Nc2ccc(F)c(Br)c2)c(NCC2CC2)c1=O [Example 89, N-(3-bromo-4-fluorophenyl)-4-{[2-({2-[(cyclopropylmethyl)amino]-3,4-dioxocyclobut-1-en-1-yl}amino)ethyl]sulfanyl}-N′-hydroxy-1,2,5-oxadiazole-3-carboximidamide]	–	–	39 nM
O=C(CSc1nonc1C(=NO)Nc1ccc(F)c(Br)c1)N1CCC[C@H]1CO [Example 134, N-(3-bromo-4-fluorophenyl)-N′-hydroxy-4-({2-[(2S)-2-(hydroxymethyl)pyrrolidin-1-yl]-2-oxoethyl}sulfanyl)-1,2,5-oxadiazole-3-carboximidamide]	120 nM	–	–
O=C(CSc1nonc1C(=NO)Nc1ccc(F)c(Br)c1)N1CCCC1 [Example 136, N-(3-bromo-4-fluorophenyl)-N′-hydroxy-4-[(2-oxo-2-pyrrolidin-1-ylethyl)sulfanyl]-1,2,5-oxadiazole-3-carboximidamide]	112 nM	–	–
O=C(CSc1nonc1C(=NO)Nc1ccc(F)c(Br)c1)NCCF [Example 137, 2-({4-[N-(3-bromo-4-fluorophenyl)-N′-hydroxycarbamimidoyl]-1,2,5-oxadiazol-3-yl}sulfanyl)-N-(2-fluoroethyl)acetamide]	34.9 nM	–	–
NS(=O)(=O)N[C@H](CO)CSc1nonc1/C(=N/O)Nc1ccc(F)c(Br)c1 [Example 194, N-(3-bromo-4-fluorophenyl)-N′-hydroxy-4-{[(2R)-3-hydroxy-2-(sulfamoylamino)propyl]sulfanyl}-1,2,5-oxadiazole-3-carboximidamide]	–	47.1 nM	51 nM
O=C(CSc1nonc1/C(=N/O)Nc1ccc(F)c(Br)c1)N1CC[C@H](O)[C@@H](O)C1 [Example 196, N-(3-bromo-4-fluorophenyl)-4-((2-((3S,4S)-3,4-dihydroxypiperidin-1-yl)-2-oxoethyl)thio)-N′-hydroxy-1,2,5-oxadiazole-3-carboximidamide]	–	132 nM	62.3 nM
C[C@H](O)CNC(=O)CSc1nonc1/C(=N/O)Nc1ccc(F)c(Br)c1 [Example 200, (S)-2-((4-(N-(3-bromo-4-fluorophenyl)-N′-hydroxycarbamimidoyl)-1,2,5-oxadiazol-3-yl)thio)-N-(2-hydroxypropyl)acetamide]	–	14.9 nM	29.9 nM
